Reference: ChEMBL document CHEMBL3044903, “Synthesis and Herbicidal Activity of Novel 3-Alkoxycarbonyl-3-aryl-2,3-dihydro-2-oxo-1H-pyrrole Derivatives” (J Pestic Sci, 2004)

Key:
Oryza sativa [1] = assay: Phytotoxicity against two-leaf stage Oryza sativa cv. Nipponbare (rice) planted 2 cm depth at 5.0 g a.i/a measured after 3 weeks; assay type: organism-based; conditions: in vivo, 504 h
Echinochloa oryzicola [2] = assay: Pre-emergence herbicide activity against Echinochloa oryzicola under greenhouse condition at 10 g a.i/a measured after 3 weeks; assay type: functional
Oryza sativa [3] = assay: Phytotoxicity against two-leaf stage Oryza sativa cv. Nipponbare (rice) planted 2 cm depth at 1 g a.i/a measured after 3 weeks; assay type: organism-based; conditions: in vivo, other, 504 h
[4] = test system: Schoenoplectiella juncoides; assay: Pre-emergence herbicide activity against Schoenoplectiella juncoides under greenhouse condition at 1 g a.i/a measured after 3 weeks; assay type: functional
Echinochloa oryzicola [5] = assay: Herbicidal activity against Echinochloa oryzicola at 5.0 g a.i/a treated at 1.5 leaf stage measured after 3 weeks; assay type: functional
Oryza sativa [6] = assay: Phytotoxicity against two-leaf stage Oryza sativa cv. Nipponbare (rice) planted zero cm depth at 5.0 g a.i/a measured after 3 weeks; assay type: organism-based; conditions: in vivo, 504 h
Echinochloa oryzicola [7] = assay: Post-emergence herbicide activity against Echinochloa oryzicola under greenhouse condition at 1 g a.i/a treated at one-leaf stage measured after 3 weeks; assay type: functional
Echinochloa oryzicola [8] = assay: Herbicidal activity against Echinochloa oryzicola at 1 g a.i/a treated at 2.5 leaf stage measured after 3 weeks; assay type: functional
[9] = Drug degradation in MeOH-water/KOH at 70 degC assessed as formation of 1-[1-(3,5-dichlorophenyl)-1-methylethyl]-4-methyl-3- phenyl-3-pyrrolin-2-one; assay type: physicochemical; conditions: buffer
Oryza sativa [10] = assay: Phytotoxicity against two-leaf stage Oryza sativa cv. Nipponbare (rice) planted 2 cm depth assessed as crop injury at 3 g a.i/a followed by leaching of irrigation water for 3 days measured after 3 weeks post-treatment; assay type: organism-based; conditions: in vivo, other, 504 h
Echinochloa oryzicola [11] = assay: Herbicidal activity against Echinochloa oryzicola at 2.5 g a.i/a treated at 2.5 leaf stage measured after 3 weeks; assay type: functional
[12] = test system: Schoenoplectiella juncoides; assay: Post-emergence herbicide activity against Schoenoplectiella juncoides under greenhouse condition at 1 g a.i/a treated at one-leaf stage measured after 3 weeks; assay type: functional
Echinochloa oryzicola [13] = assay: Post-emergence herbicide activity against Echinochloa oryzicola under greenhouse condition at 10 g a.i/a treated at one-leaf stage measured after 3 weeks; assay type: functional
Echinochloa oryzicola [14] = assay: Herbicidal activity against Echinochloa oryzicola at 2.5 g a.i/a treated at 1.5 leaf stage measured after 3 weeks; assay type: functional
[15] = test system: Schoenoplectiella juncoides; assay: Post-emergence herbicide activity against Schoenoplectiella juncoides under greenhouse condition at 10 g a.i/a treated at one-leaf stage measured after 3 weeks; assay type: functional
Echinochloa oryzicola [16] = assay: Herbicidal activity against Echinochloa oryzicola at 5.0 g a.i/a treated at 2.5 leaf stage measured after 3 weeks; assay type: functional
Echinochloa oryzicola [17] = assay: Pre-emergence herbicide activity against Echinochloa oryzicola under greenhouse condition at 1 g a.i/a measured after 3 weeks; assay type: functional
Oryza sativa [18] = assay: Phytotoxicity against two-leaf stage Oryza sativa cv. Nipponbare (rice) planted zero cm depth at 1 g a.i/a measured after 3 weeks; assay type: organism-based; conditions: in vivo, other, 504 h
Oryza sativa [19] = assay: Phytotoxicity against two-leaf stage Oryza sativa cv. Nipponbare (rice) planted 2 cm depth at 2.5 g a.i/a measured after 3 weeks; assay type: organism-based; conditions: in vivo, 504 h
Oryza sativa [20] = assay: Phytotoxicity against two-leaf stage Oryza sativa cv. Nipponbare (rice) planted 2 cm depth assessed as crop injury at 6 g a.i/a followed by leaching of irrigation water for 3 days measured after 3 weeks post-treatment; assay type: organism-based; conditions: in vivo, other, 504 h
Echinochloa oryzicola [21] = assay: Herbicidal activity against Echinochloa oryzicola at 1 g a.i/a treated at 1.5 leaf stage measured after 3 weeks; assay type: functional
[22] = test system: Schoenoplectiella juncoides; assay: Pre-emergence herbicide activity against Schoenoplectiella juncoides under greenhouse condition at 10 g a.i/a measured after 3 weeks; assay type: functional
Oryza sativa [23] = assay: Phytotoxicity against two-leaf stage Oryza sativa cv. Nipponbare (rice) planted zero cm depth at 2.5 g a.i/a measured after 3 weeks; assay type: organism-based; conditions: in vivo, other, 504 h

**Q.** With COC(=O)C1(c2ccccc2)C(=O)N(C(C)(C)c2cc(Cl)cc(Cl)c2)C=C1C (stereo not drawn) as the molecule, how does the Activity (Oryza sativa [1]) read?
**A.** 0%

**Q.** What about the Activity (Echinochloa oryzicola [2]) of the same molecule?
**A.** 100%

**Q.** What about the Activity (Oryza sativa [3]) of the same molecule?
**A.** 0%

**Q.** What about the Activity [4] of the same molecule?
**A.** 100%

**Q.** What about the Activity (Echinochloa oryzicola [5]) of the same molecule?
**A.** 100%

**Q.** And the Activity (Oryza sativa [6])?
**A.** 80%

**Q.** What about the Activity (Echinochloa oryzicola [7]) of the same molecule?
**A.** 87.6%

**Q.** What about the Activity (Echinochloa oryzicola [8]) of the same molecule?
**A.** 60%

**Q.** What about the Stability [9] of the same molecule?
**A.** Unstable

**Q.** And the Activity (Oryza sativa [10])?
**A.** 0%

**Q.** And the Activity (Echinochloa oryzicola [11])?
**A.** 95%

**Q.** And the Activity [12]?
**A.** 0.1%

**Q.** And the Activity (Echinochloa oryzicola [13])?
**A.** 100%

**Q.** And the Activity (Echinochloa oryzicola [14])?
**A.** 98%

**Q.** What about the Activity [15] of the same molecule?
**A.** 87.6%

**Q.** What about the Activity (Echinochloa oryzicola [16]) of the same molecule?
**A.** 98%

**Q.** And the Activity (Echinochloa oryzicola [17])?
**A.** 100%

**Q.** What about the Activity (Oryza sativa [18]) of the same molecule?
**A.** 0%

**Q.** What about the Activity (Oryza sativa [19]) of the same molecule?
**A.** 0%

**Q.** And the Activity (Oryza sativa [20])?
**A.** 7%

**Q.** What about the Activity (Echinochloa oryzicola [21]) of the same molecule?
**A.** 98%

**Q.** And the Activity [22]?
**A.** 100%

**Q.** What about the Activity (Oryza sativa [23]) of the same molecule?
**A.** 10%
